The values below come from patent US20250026752A1, “POSITIVE ALLOSTERIC MODULATORS OF THE MUSCARINIC ACETYLCHOLINE RECEPTOR M4” (Vanderbilt University, priority 2021, published 2025).

The target in the assay is T1, human mAChR M4 (Homo sapiens, UniProt P08173).
T1 construct: expressed in transfected cells; host or cells: CHO-K1 (ATCC), stably expressing hM4 and Gqi5
T1 sequence (P08173 1-479): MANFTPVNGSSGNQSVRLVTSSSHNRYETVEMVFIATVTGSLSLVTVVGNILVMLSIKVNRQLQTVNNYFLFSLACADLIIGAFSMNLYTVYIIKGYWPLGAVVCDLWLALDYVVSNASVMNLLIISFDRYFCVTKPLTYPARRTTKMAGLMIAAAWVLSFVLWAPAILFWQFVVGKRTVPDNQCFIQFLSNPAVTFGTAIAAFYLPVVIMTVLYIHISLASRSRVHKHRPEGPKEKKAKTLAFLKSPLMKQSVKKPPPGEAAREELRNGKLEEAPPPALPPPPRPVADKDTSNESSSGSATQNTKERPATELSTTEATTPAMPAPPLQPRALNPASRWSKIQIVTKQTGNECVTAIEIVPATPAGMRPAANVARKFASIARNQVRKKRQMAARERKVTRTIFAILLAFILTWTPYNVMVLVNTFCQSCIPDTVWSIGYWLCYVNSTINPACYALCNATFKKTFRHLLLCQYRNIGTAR
In words: mAChR M4 cell-based functional assay: calcium flux (Fluo-4, FDSS), positive allosteric modulator activity on the EC20 acetylcholine response, hM4-Gqi5 CHO-K1 cells. The conditions noted are these: for Emax at 30 µM: CHO-K1, human M4, % ACh maximum at 30 μM; for EC50: human M4, PAM activity on EC20 acetylcholine response, calcium flux, read-out: Human M4 EC50. An outline of the steps:
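Potentiation was taken as the concentration-dependent rise in the EC20 acetylcholine calcium response, fitted by a four-parameter logistic with EC20 as baseline. Fluo-4-loaded hM4-Gqi5 CHO-K1 cells received 11-point, threefold-diluted compound before acetylcholine at 144 s; FDSS read at 1 Hz.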
For orientation: Calcium assays in cells follow changes in intracellular calcium, usually with a dye or a luminescent sensor.

SMILES strings stand for the structures.

Turning to `Cc1nc(N2CCc3ncc(-c4cc(C(F)(F)F)nn4C)cc3C2)c2cc(Cl)ccc2n1` [Compound 257, 6-chloro-2-methyl-4-(3-(1-methyl-3-(trifluoromethyl)-1H-pyrazol-5-yl)-7,8-dihydro-1,6-naphthyridin-6(5H)-yl)quinazoline], the Emax at 30 µM was determined as 87% and the EC50 is 830 nM.
For `Cc1ccc2ncnc(N3CCc4ncc(N5CCOc6ncccc65)cc4C3)c2c1` [Compound 92, 1-[6-(6-methylquinazolin-4-yl)-7,8-dihydro-5H-1,6-naphthyridin-3-yl]-2,3-dihydropyrido[2,3-b][1,4]oxazine] the same measures were 122% and 120 nM.
As for `Cc1nc(N2CCc3ncc(-c4cc(F)c(F)cc4C)cc3C2)c2cc(F)ccc2n1` [Compound 307, 4-(3-(4,5-difluoro-2-methylphenyl)-7,8-dihydro-1,6-naphthyridin-6(5H)-yl)-6-fluoro-2-methylquinazoline], the maximal effect (Emax) at 30 µM is 54% and the EC50 is 3730 nM.
Regarding `CC(C)(C)c1cc2n(n1)CCCN2c1cnc2c(c1)CN(c1ncnc3ccc(F)cc13)CC2` [Compound 279, 4-(3-(2-(tert-butyl)-6,7-dihydropyrazolo[1,5-a]pyrimidin-4(5H)-yl)-7,8-dihydro-1,6-naphthyridin-6(5H)-yl)-6-fluoroquinazoline], the Emax at 30 µM was found to be 72% and the EC50 was determined as 810 nM.
Consider `Cc1nc(N2CCc3ncc(C(F)(F)F)cc3C2)c2c(F)cccc2n1` [Compound 125, 5-fluoro-2-methyl-4-[3-(trifluoromethyl)-7,8-dihydro-5H-1,6-naphthyridin-6-yl]quinazoline], for which the Emax at 30 µM turned out to be 78% and the EC50 turned out to be 400 nM.
In the case of `Fc1ccc2nc(NC3CC(F)(F)C3)nc(N3CCc4ncc(C(F)(F)F)cc4C3)c2c1` [Compound 184, N-(3,3-difluorocyclobutyl)-6-fluoro-4-[3-(trifluoromethyl)-7,8-dihydro-5H-1,6-naphthyridin-6-yl]quinazolin-2-amine], the Emax at 30 µM worked out at 93% and the EC50 was determined as 1380 nM.
As to `Clc1ccc2nc(Cl)nc(N3CCc4ncc(Br)cc4C3)c2c1` [Compound 149, 4-(3-bromo-7,8-dihydro-5H-1,6-naphthyridin-6-yl)-2,6-dichloro-quinazoline], the maximum response (Emax) at 30 µM stood at 97% and the EC50 worked out at 170 nM.
Regarding `Fc1ccc2nc(C(F)(F)F)nc(N3CCc4ncc(N5CCCn6nccc65)cc4C3)c2c1` [Compound 111, 4-[3-(6,7-dihydro-5H-pyrazolo[1,5-a]pyrimidin-4-yl)-7,8-dihydro-5H-1,6-naphthyridin-6-yl]-6-fluoro-2-(trifluoromethyl)quinazoline], the Emax at 30 µM was determined as 82% and the EC50 amounted to 400 nM.
`Cc1nc(N2CCc3ncc(-c4ccccc4C)cc3C2)c2cc(Cl)ccc2n1` [Compound 302, 6-chloro-2-methyl-4-(3-(o-tolyl)-7,8-dihydro-1,6-naphthyridin-6(5H)-yl)quinazoline]: the Emax at 30 µM was found to be 94% and the 50% effective concentration (EC50) came out at 5370 nM.
In the same order, the values of `Cc1nc(N2CCc3ncc(N4CCOc5ncccc54)cc3C2)c2cc(C(F)(F)F)ccc2n1` [Compound 182, 1-[6-[2-methyl-6-(trifluoromethyl)quinazolin-4-yl]-7,8-dihydro-5H-1,6-naphthyridin-3-yl]-2,3-dihydropyrido[2,3-b][1,4]oxazine] are 81% and 3300 nM.
In the same order, the values of `CN1CCN(c2cnc3c(c2)CN(c2ncnc4cc(F)c(F)cc24)CC3)CC12COC2` [Compound 284, 8-(6-(6,7-difluoroquinazolin-4-yl)-5,6,7,8-tetrahydro-1,6-naphthyridin-3-yl)-5-methyl-2-oxa-5,8-diazaspiro[3.5]nonane] are 104% and 500 nM.
Turning to `Cc1ccc2nc(C)nc(N3CCc4ncc(C(F)(F)F)cc4C3)c2c1` [Compound 177, 2,6-dimethyl-4-[3-(trifluoromethyl)-7,8-dihydro-5H-1,6-naphthyridin-6-yl]quinazoline], the Emax at 30 µM is 92% and the EC50 worked out at 60 nM.
`CC1CN(c2cnc3c(c2)CN(c2ncnc4ccc(F)cc24)CC3)c2ccnn2C1` (stereo not drawn) [Compound 225, 6-fluoro-4-(3-(6-methyl-6,7-dihydropyrazolo[1,5-a]pyrimidin-4(5H)-yl)-7,8-dihydro-1,6-naphthyridin-6(5H)-yl)quinazoline]: the Emax at 30 µM worked out at 94% and the EC50 was found to be 70 nM.
In the case of `[2H]C1([2H])N(c2cnc3c(c2)CN(c2ncnc4ccc(F)cc24)CC3)c2ccnn2C([2H])([2H])C1([2H])[2H]` [Compound 281, 4-(3-(6,7-dihydropyrazolo[1,5-a]pyrimidin-4(5H)-yl-5,5,6,6,7,7-d6)-7,8-dihydro-1,6-naphthyridin-6(5H)-yl)-6-fluoroquinazoline], the Emax at 30 µM was determined as 104% and the EC50 was 30 nM.
On to `Cc1nn(C)cc1-c1cnc2c(c1)CN(c1nc(Cl)nc3ccc(F)cc13)CC2` [Compound 31, 2-chloro-4-[3-(1,3-dimethylpyrazol-4-yl)-7,8-dihydro-5H-1,6-naphthyridin-6-yl]-6-fluoro-quinazoline], for which the Emax at 30 µM was determined as 95% and the EC50 stood at 230 nM.
Take `Cc1nn(C)cc1-c1cnc2c(c1)CN(c1nc(-c3cn(C)nc3C)nc3ccc(Cl)cc13)CC2` [Compound 188, 6-chloro-2-(1,3-dimethylpyrazol-4-yl)-4-[3-(1,3-dimethylpyrazol-4-yl)-7,8-dihydro-5H-1,6-naphthyridin-6-yl]quinazoline]: the Emax at 30 µM stood at 68% and the half-maximal effective concentration (EC50) turned out to be 1910 nM.
For the compound `Cc1ccc2nc(Nc3ccnn3C)nc(N3CCc4ncc(Nc5ccnn5C)cc4C3)c2c1` [Compound 189, 6-methyl-N-(2-methylpyrazol-3-yl)-4-[3-[(2-methylpyrazol-3-yl)amino]-7,8-dihydro-5H-1,6-naphthyridin-6-yl]quinazolin-2-amine], the Emax at 30 µM turned out to be 127% and the EC50 was 180 nM.
As for `Cc1ccc2nc(C)nc(N3CCc4ncc(-c5cnn(C6CC6)c5)cc4C3)c2c1` [Compound 33, 4-[3-(1-cyclopropylpyrazol-4-yl)-7,8-dihydro-5H-1,6-naphthyridin-6-yl]-2,6-dimethyl-quinazoline], the maximal response (Emax) at 30 µM amounted to 92% and the half-maximal effective concentration (EC50) stood at 380 nM.
In the case of `Cc1ccc2nc(C)nc(N3CCc4ncc(-c5ccccc5C)cc4C3)c2c1` [Compound 316, 2,6-dimethyl-4-(3-(o-tolyl)-7,8-dihydro-1,6-naphthyridin-6(5H)-yl)quinazoline], the Emax at 30 µM turned out to be 93% and the EC50 came out at 1600 nM.
Regarding `Cc1nn(-c2cnc3c(c2)CN(c2ncnc4ccc(F)cc24)CC3)c2cccnc12` [Compound 218, 6-fluoro-4-(3-(3-methyl-1H-pyrazolo[4,3-b]pyridin-1-yl)-7,8-dihydro-1,6-naphthyridin-6(5H)-yl)quinazoline], the Emax at 30 µM was determined as 73% and the EC50 is 570 nM.
As to `COc1cc2c(N3CCc4ncc(N5CCCn6nccc65)cc4C3)nc(Cl)nc2cc1F` [Compound 102, 2-chloro-4-[3-(6,7-dihydro-5H-pyrazolo[1,5-a]pyrimidin-4-yl)-7,8-dihydro-5H-1,6-naphthyridin-6-yl]-7-fluoro-6-methoxy-quinazoline], the Emax at 30 µM is 78% and the EC50 was determined as 210 nM.

The Emax is the greatest response seen or fitted, relative to the assay's reference. By EC50 is commonly meant the concentration at which the effect is half-maximal.
